According to patent publication US9695193B2, “Inhibitors of Plasmodium falciparum equilibrative nucleoside transporter type I as anti-parasitic compounds” (The Trustees of Columbia University in the City of New York, priority 2013, dated 2017):

Target: T1, PfENT1 (Plasmodium falciparum, UniProt Q8IDM6)
T1 construct: expressed in transfected cells; host or cells: fui1Δ yeast (Saccharomyces cerevisiae), co-expressing GFP
Assay type: cell-based
Settings: primary HTS, compounds at 10 μM, 125 μM 5-FUrd
Method: A yeast-based high throughput screening (HTS) assay was used to identify compounds that inhibit PfENT1. The compounds described in this application were identified by screening four commercially available, chemical compound libraries obtained from Dr. Donald Landry's laboratory (Department of Medicine, Columbia University). These libraries contain approximately 80,000 unique chemical entities.
In the primary screen the compounds were tested at a concentration of 10 μM. Hits were identified by the growth of fui1Δ yeast expressing PfENT1 and Green Fluorescent Protein (GFP) in the presence of the cytotoxic nucleoside 5-fluorouridine (5-FUrd). 5-FUrd is transported by PfENT1. PfENT1 expressing fui1Δ yeast will only grow in the presence of 125 μM 5-FUrd if a PfENT1 inhibitor blocks the uptake of 5-FUrd into the yeast. Significant yeast growth in the HTS in 384 well plates was determined by two criteria: 1) turbidity as determined by the optical density at 620 nm (OD620) and 2) GFP fluorescence intensity. […] Hits had to be positive by both criteria.

T1 sequence (Q8IDM6 whole entry): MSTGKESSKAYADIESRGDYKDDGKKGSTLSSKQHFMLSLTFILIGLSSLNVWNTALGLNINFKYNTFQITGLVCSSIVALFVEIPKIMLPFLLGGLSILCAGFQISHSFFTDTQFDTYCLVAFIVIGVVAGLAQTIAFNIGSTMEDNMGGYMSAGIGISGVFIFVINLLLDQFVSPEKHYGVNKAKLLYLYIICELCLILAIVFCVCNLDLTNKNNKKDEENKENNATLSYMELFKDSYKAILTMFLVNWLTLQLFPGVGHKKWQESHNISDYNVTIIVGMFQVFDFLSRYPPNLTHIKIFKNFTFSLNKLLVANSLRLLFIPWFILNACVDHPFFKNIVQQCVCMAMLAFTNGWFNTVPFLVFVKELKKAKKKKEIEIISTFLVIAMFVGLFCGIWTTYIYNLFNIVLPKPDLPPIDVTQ

Compound	Avg Normalized % maximal activity [%]
O=C(COc1ccccc1Cl)Nc1ccc(C(=O)N2CCCCC2)cc1 [compound 8, 2-(2-chlorophenoxy)-N-[4-(1-piperidinylcarbonyl)phenyl]acetamide]	54.23
COc1cccc(C(=O)Nc2cccc(-c3nnc(-c4ccco4)o3)c2)c1 [compound 9, N-{3-[5-(2-furyl)-1,3,4-oxadiazol-2-yl]phenyl}-3-methoxybenzamide]	54.12
Cc1nc(NC(=O)c2sc3ccccc3c2Cl)sc1C(=O)N(C)C [compound 10, 2-{[(3-chloro-1-benzothien-2-yl)carbonyl]amino}-N,N,4-trimethyl-1,3-thiazole-5-carboxamide]	45.82
O=C(Nc1cccc(-c2nc3ncccc3o2)c1)c1ccco1 [compound 11, N-(3-[1,3]oxazolo[4,5-b]pyridin-2-ylphenyl)-2-furamide]	32.85
Cc1cc(=O)oc2cc(OCc3nnc(-c4ccccc4)o3)ccc12 [compound 12, 4-methyl-7-[(5-phenyl-1,3,4-oxadiazol-2-yl)methoxy]-2H-chromen-2-one]	31.72
Cc1ccnc(NC(=O)c2ccc(NC(=O)c3ccco3)cc2)c1 [compound 14, N-(4-{[(4-methyl-2-pyridinyl)amino]carbonyl}phenyl)-2-furamide]	24.47
COc1ccc(-c2cnc3ccccc3n2)cc1NC(=O)c1ccncc1 [compound 15]	24.18
COc1ccc(C(=O)Nc2cccc(-c3nc4ncccc4o3)c2)cc1 [compound 16, 4-methoxy-N-(3-[1,3]oxazolo [4,5-b]pyridin-2-ylphenyl)benzamide]	23.87
CCN(CC)C(=O)COc1ccc2c(c1)oc(=O)c1cc(OC)ccc12 [compound 17, N,N-diethyl-2-[(8-methoxy-6-oxo-6H-benzo [c]chromen-3-yl)oxy]acetamide]	22.15
O=c1[nH]c(/C=C/c2ccccc2Cl)nc2ccccc12 [compound 18, 2-[2-(2-chlorophenyl)vinyl]-4(3H)-quinazolinone]	21.82
O=C(Nc1cccc(-c2cn3ccsc3n2)c1)c1ccccc1F [compound 20, 2-fluoro-N-(3-imidazo[2,1-b][1,3]thiazol-6-ylphenyl)benzamide]	19.78
CC1CCc2sc3ncnc(N4CCN(C(=O)c5ccco5)CC4)c3c2C1 (stereo not shown) [compound 21, 4-[4-(2-furoyl)-1-piperazinyl]-6-methyl-5,6,7,8-tetrahydro[1] benzothieno[2,3-d]pyrimidine]	17.70
Cc1nc(NC(=O)c2oc3ccccc3c2C)sc1C(=O)N(C)C [compound 22, N,N,4-trimethyl-2-{[(3-methyl-1-benzofuran-2-yl)carbonyl]amino}-1,3-thiazole-5-carboxamide]	17.36
Fc1ccc(C2CC(c3ccco3)n3ncnc3N2)cc1 (stereo not shown) [compound 23, 5-(4-fluorophenyl)-7-(2-furyl)-4,5,6,7-tetrahydro[1,2,4] triazolo[1,5-a]pyrimidine]	16.77
O=C(Nc1nc2c(s1)C(=O)CCC2)c1ccccc1Cl [compound 24, 2-chloro-N-(7-oxo-4,5,6,7-tetrahydro-1,3-benzothiazol-2-yl)benzamide]	16.16
CCOc1ccc(-c2noc(CCCC(=O)N3CCCCC3)n2)cc1OC [compound 25, 1-{4-[3-(4-ethoxy-3-methoxyphenyl)-1,2,4-oxadiazol-5-yl]butanoyl} piperidine]	15.69

Compound	Avg Normalized % maximal activity [%]
O=C(Nc1ccc(-c2nnc(-c3ccco3)o2)cc1)C1CCCO1 (stereo not shown) [compound 26, N-{4-[5-(2-furyl)-1,3,4-oxadiazol-2-yl]phenyl}tetrahydro-2-furancarboxamide]	15.22
COc1ccc(-c2nc3ccccc3o2)cc1NC(=O)c1cccnc1 [compound 27, N-[5-(1,3-benzoxazol-2-yl)-2-methoxyphenyl] nicotinamide]	14.03
Cc1ccccc1C(=O)Nc1ccc2c(C)cc(=O)oc2c1 [compound 28]	13.98
COc1ccc(-c2nnc(OC)c3ccccc23)cc1 [compound 29, 1-methoxy-4-(4-methoxyphenyl) phthalazine]	13.58
O=C(Nc1ccc(-c2nnc(-c3ccccc3)o2)cc1)c1ccco1 [compound 30, N-[4-(5-phenyl-1,3,4-oxadiazol-2-yl)phenyl]-2-furamide]	13.43
CCOc1ccccc1NC(=O)c1cccc(NC(=O)c2ccco2)c1 [compound 31, N-(3-{[(2-ethoxyphenyl)amino]carbonyl}phenyl)-2-furamide]	13.00
COc1ccc(Cl)cc1Nc1nnc(-c2cnccn2)s1 [compound 32, N-(5-chloro-2-methoxyphenyl)-5-(2-pyrazinyl)-1,3,4-thiadiazol-2-amine]	12.03
COC(=O)c1ccccc1NC(=O)c1cccc(NC(=O)c2ccco2)c1C [compound 33, methyl 2-{[3-(2-furoylamino)-2-methylbenzoyl]amino}benzoate]	11.98
Cc1c(/C=C/c2nc3ccccc3c(=O)[nH]2)c2ccccc2n1C [compound 34, 2-[2-(1,2-dimethyl-1H-indol-3-yl)vinyl]-4(3H)-quinazolinone]	11.27
COc1cccc(C(=O)Nc2ccc(-c3nnc(-c4ccco4)o3)cc2)c1 [compound 35, N-{4-[5-(2-furyl)-1,3,4-oxadiazol-2-yl]phenyl}-3-methoxybenzamide]	11.40
CCc1cccc(C)c1NS(=O)(=O)c1cccs1 [compound 36, N-(2-ethyl-6-methylphenyl)-2-thiophenesulfonamide]	11.14
COc1ccc(C(=O)Nc2ccc(-c3nc4ncccc4o3)cc2C)cc1OC [compound 37, 3,4-dimethoxy-N-(2-methyl-4-[1,3]oxazolo [4,5-b]pyridin-2-ylphenyl)benzamide]	10.61
C[C@@H]1C[C@@H](O[C@H]2[C@H](O[C@H]3CC[C@@]4(C)C(CC[C@]5(C)[C@@H]4CC=C4C6CC(C)(C)CC[C@]6(C(=O)O[C@@H]6O[C@H](CO[C@@H]7O[C@H](CO)[C@@H](O[C@@H]8O[C@@H](C)[C@H](O)[C@@H](O)[C@H]8O)[C@H](O)[C@H]7O)[C@@H](O)[C@H](O)[C@H]6O)CC[C@]45C)[C@]3(C)CO)OC[C@H](O)[C@@H]2O)[C@H](O)[C@H](O)[C@H]1O (stereo partly shown) [compound 38]	10.61
Cc1ccc2oc(-c3ccc(NC(=O)C4CCCO4)cc3)nc2c1 (stereo not shown) [compound 39, N-[4-(5-methyl-1,3-benzoxazol-2-yl)phenyl]tetrahydro-2-furancarboxamide]	10.52
CCOC(=O)c1cc(NC(=O)c2ccccc2F)ccc1N1CCOCC1 [compound 40, ethyl 5-[(2-fluorobenzoyl)amino]-2-(4-morpholinyl)benzoate]	10.29
